# Data from ChEMBL document CHEMBL2346657, “Synthesis of novel 2-amino-4-(5'-substituted 2'-phenyl-1H-indol-3'-yl)-6-aryl-4H-pyran-3-carbonitrile derivatives as antimicrobial and antioxidant agents” (2013).
# Activity calls are given as the source filed them. No rule for the calls is given here.
# Experiments:
# Assay type in all cases: functional
# Aspergillus niger [1] = experiment: Antimicrobial activity against Aspergillus niger MTCC 281 at 1000 ug/ml after 72 hrs by cup plate method; details: MTCC 281, 72 h, read-out: IZ
# Aspergillus oryzae [2] = experiment: Antimicrobial activity against Aspergillus oryzae MTCC 3567 at 500 ug/ml after 72 hrs by cup plate method; details: MTCC 3567, 72 h, read-out: IZ
# Aspergillus oryzae [3] = experiment: Antimicrobial activity against Aspergillus oryzae MTCC 3567 at 1000 ug/ml after 72 hrs by cup plate method; details: MTCC 3567, 72 h, read-out: IZ
# Aspergillus terreus [4] = experiment: Antimicrobial activity against Aspergillus terreus MTCC 1782 at 750 ug/ml after 72 hrs by cup plate method; details: MTCC 1782, 72 h, read-out: IZ
# Pseudomonas aeruginosa [5] = experiment: Antimicrobial activity against Pseudomonas aeruginosa MTCC 1688 at 750 ug/ml after 24 hrs by cup plate method; details: MTCC 1688, 24 h, read-out: IZ
# Aspergillus terreus [6] = experiment: Antimicrobial activity against Aspergillus terreus MTCC 1782 at 1000 ug/ml after 72 hrs by cup plate method; details: MTCC 1782, 72 h, read-out: IZ
# Escherichia coli [7] = experiment: Antimicrobial activity against Escherichia coli MTCC 723 at 1000 ug/ml after 24 hrs by cup plate method; details: MTCC 723, 24 h, read-out: IZ
# Staphylococcus aureus [8] = experiment: Antimicrobial activity against Staphylococcus aureus ATCC 29513 at 750 ug/ml after 24 hrs by cup plate method; details: ATCC 29513, 24 h, read-out: IZ
# Aspergillus niger [9] = experiment: Antimicrobial activity against Aspergillus niger MTCC 281 at 500 ug/ml after 72 hrs by cup plate method; details: MTCC 281, 72 h, read-out: IZ
# Aspergillus terreus [10] = experiment: Antimicrobial activity against Aspergillus terreus MTCC 1782 at 500 ug/ml after 72 hrs by cup plate method; details: MTCC 1782, 72 h, read-out: IZ
# Aspergillus flavus [11] = experiment: Antimicrobial activity against Aspergillus flavus MTCC 1973 at 750 ug/ml after 72 hrs by cup plate method; details: MTCC 1973, 72 h, read-out: IZ
# Staphylococcus aureus [12] = experiment: Antimicrobial activity against Staphylococcus aureus ATCC 29513 at 500 ug/ml after 24 hrs by cup plate method; details: ATCC 29513, 24 h, read-out: IZ
# Pseudomonas aeruginosa [13] = experiment: Antimicrobial activity against Pseudomonas aeruginosa MTCC 1688 at 1000 ug/ml after 24 hrs by cup plate method; details: MTCC 1688, 24 h, read-out: IZ
# Klebsiella pneumoniae [14] = experiment: Antimicrobial activity against Klebsiella pneumoniae NCTC 13368 at 750 ug/ml after 24 hrs by cup plate method; details: NCTC 13368, 24 h, read-out: IZ
# Escherichia coli [15] = experiment: Antimicrobial activity against Escherichia coli MTCC 723 at 750 ug/ml after 24 hrs by cup plate method; details: MTCC 723, 24 h, read-out: IZ
# Pseudomonas aeruginosa [16] = experiment: Antimicrobial activity against Pseudomonas aeruginosa MTCC 1688 at 500 ug/ml after 24 hrs by cup plate method; details: MTCC 1688, 24 h, read-out: IZ
# Aspergillus flavus [17] = experiment: Antimicrobial activity against Aspergillus flavus MTCC 1973 at 1000 ug/ml after 72 hrs by cup plate method; details: MTCC 1973, 72 h, read-out: IZ
# Aspergillus oryzae [18] = experiment: Antimicrobial activity against Aspergillus oryzae MTCC 3567 at 750 ug/ml after 72 hrs by cup plate method; details: MTCC 3567, 72 h, read-out: IZ
# [19] = Antioxidant activity assessed as metal chelating activity by measuring inhibition of ferrozine-Fe2+ complex formation at 25 to 100 ug/ml
# Klebsiella pneumoniae [20] = experiment: Antimicrobial activity against Klebsiella pneumoniae NCTC 13368 at 1000 ug/ml after 24 hrs by cup plate method; details: NCTC 13368, 24 h, read-out: IZ
# Aspergillus flavus [21] = experiment: Antimicrobial activity against Aspergillus flavus MTCC 1973 at 500 ug/ml after 72 hrs by cup plate method; details: MTCC 1973, 72 h, read-out: IZ
# Escherichia coli [22] = experiment: Antimicrobial activity against Escherichia coli MTCC 723 at 500 ug/ml after 24 hrs by cup plate method; details: MTCC 723, 24 h, read-out: IZ
# Klebsiella pneumoniae [23] = experiment: Antimicrobial activity against Klebsiella pneumoniae NCTC 13368 at 500 ug/ml after 24 hrs by cup plate method; details: NCTC 13368, 24 h, read-out: IZ
# Staphylococcus aureus [24] = experiment: Antimicrobial activity against Staphylococcus aureus ATCC 29513 at 1000 ug/ml after 24 hrs by cup plate method; details: ATCC 29513, 24 h, read-out: IZ
# Aspergillus niger [25] = experiment: Antimicrobial activity against Aspergillus niger MTCC 281 at 750 ug/ml after 72 hrs by cup plate method; details: MTCC 281, 72 h, read-out: IZ
SMILES,zone of inhibition at 1000 µg/mL (Aspergillus niger [1]),zone of inhibition at 500 µg/mL (Aspergillus oryzae [2]),zone of inhibition at 1000 µg/mL (Aspergillus oryzae [3]),zone of inhibition at 750 µg/mL (Aspergillus terreus [4]),zone of inhibition at 750 µg/mL (Pseudomonas aeruginosa [5]),zone of inhibition at 1000 µg/mL (Aspergillus terreus [6]),zone of inhibition at 1000 µg/mL (Escherichia coli [7]),zone of inhibition at 750 µg/mL (Staphylococcus aureus [8]),zone of inhibition at 500 µg/mL (Aspergillus niger [9]),zone of inhibition at 500 µg/mL (Aspergillus terreus [10]),zone of inhibition at 750 µg/mL (Aspergillus flavus [11]),zone of inhibition at 500 µg/mL (Staphylococcus aureus [12]),zone of inhibition at 1000 µg/mL (Pseudomonas aeruginosa [13]),zone of inhibition at 750 µg/mL (Klebsiella pneumoniae [14]),zone of inhibition at 750 µg/mL (Escherichia coli [15]),zone of inhibition at 500 µg/mL (Pseudomonas aeruginosa [16]),zone of inhibition at 1000 µg/mL (Aspergillus flavus [17]),zone of inhibition at 750 µg/mL (Aspergillus oryzae [18]),Activity [19],zone of inhibition at 1000 µg/mL (Klebsiella pneumoniae [20]),also measured
Cc1ccc(C2=CC(c3c(-c4ccccc4)[nH]c4ccccc34)c3c(N)n[nH]c3O2)cc1 (stereo not given),5 mm,7 mm,7 mm,4 mm,6 mm,4 mm,8 mm,3 mm,9 mm,4 mm,2 mm,5 mm,6 mm,3 mm,8 mm,8 mm,8 mm,7 mm,Active,2 mm,zone of inhibition at 500 µg/mL (Aspergillus flavus [21]): 3 mm; zone of inhibition at 500 µg/mL (Escherichia coli [22]): 8 mm; zone of inhibition at 500 µg/mL (Klebsiella pneumoniae [23]): 4 mm; zone of inhibition at 1000 µg/mL (Staphylococcus aureus [24]): 3 mm; zone of inhibition at 750 µg/mL (Aspergillus niger [25]): 9 mm
Cc1ccc(C2=CC(c3c(-c4ccccc4)[nH]c4ccc(Cl)cc34)C(C#N)=C(N)O2)cc1 (stereo not given),3 mm,8 mm,2 mm,3 mm,6 mm,3 mm,10 mm,5 mm,4 mm,5 mm,5 mm,8 mm,3 mm,10 mm,10 mm,6 mm,5 mm,8 mm,Active,10 mm,zone of inhibition at 500 µg/mL (Aspergillus flavus [21]): 5 mm; zone of inhibition at 500 µg/mL (Escherichia coli [22]): 10 mm; zone of inhibition at 500 µg/mL (Klebsiella pneumoniae [23]): 10 mm; zone of inhibition at 1000 µg/mL (Staphylococcus aureus [24]): 6 mm; zone of inhibition at 750 µg/mL (Aspergillus niger [25]): 3 mm
Cc1ccc(C2=CC(c3c(-c4ccccc4)[nH]c4ccc(Cl)cc34)c3c(N)nc(=S)[nH]c3O2)cc1 (stereo not given),10 mm,3 mm,2 mm,8 mm,10 mm,8 mm,9 mm,3 mm,10 mm,9 mm,3 mm,6 mm,10 mm,10 mm,9 mm,10 mm,3 mm,2 mm,Active,9 mm,zone of inhibition at 500 µg/mL (Aspergillus flavus [21]): 3 mm; zone of inhibition at 500 µg/mL (Escherichia coli [22]): 10 mm; zone of inhibition at 500 µg/mL (Klebsiella pneumoniae [23]): 10 mm; zone of inhibition at 1000 µg/mL (Staphylococcus aureus [24]): 2 mm; zone of inhibition at 750 µg/mL (Aspergillus niger [25]): 10 mm
